Test results taken from ChEMBL document CHEMBL1150485, “Rapid synthesis and properties of ()-6-Deoxy-6-fluoro-myo-inositol-1,4,5-tris(phosphate) an analogue of myo-inositol-1,4,5-tris(phosphate)” (Bioorg Med Chem Lett, 1996).

Species: Bos taurus
Assay: Binding affinity on adrenal cortex microsomes
Assay type: functional
O=P(O)(O)O[C@@H]1[C@H](O)[C@H](O)[C@@H](OP(=O)(O)O)[C@H](OP(=O)(O)O)[C@H]1F gave a Kd of 1600 nM. O=P(O)(O)O[C@@H]1CC[C@@H](OP(=O)(O)O)[C@H](OP(=O)(O)O)C1 showed a Kd of 4000 nM. Compound O=P(O)(O)O[C@@H]1[C@H](O)[C@H](O)[C@@H](OP(=O)(O)O)[C@H](OP(=O)(O)O)[C@H]1O [INS(1,4,5)P3] has a Kd of 10 nM.
